Data reported in patent publication US7511119B2, “PRAME peptide analogues” (MannKind Corporation, priority 2005, dated 2009).
“Also recorded” adds a separate entry of the source. Square brackets hold non-standard residues; d marks the D form. Ends that are not written are not given here. Nle = CCCC[C@H](N)C(=O)O; Nva = CCC[C@H](N)C(=O)O

How the values were obtained:
splenocytes = test: Ex vivo cytokine production (IFN-gamma ELISA) after boost with PRAME analogs; format: in vivo, HHD transgenic mice; settings: 10 μg/ml native peptide, 48 hours; FIG. 32
[1] = tested on: T cell line specific for the native epitope PRAME425-433; test: Cross-reactivity of PRAME425-433 analogs: IFN-gamma secretion from T cell line specific for native epitope; format: cell-based; settings: analog peptide at approximately 0.3 μM; normalized to native PRAME425-433
Protocol: The analogs listed in FIGS. 26-28 were tested for various properties such as improved affinity and stability of binding, cross-reactivity with the native epitope, and immunogenicity as follows in Examples 40-48. […] The observed affinities of the analogs are reported as % binding (compared to the positive control) and ED50, and stability of binding as half time of dissociation. Cross reactivity with the native epitope was assessed by using the analog peptides to stimulate IFN-gamma secretion from a T cell line specific for the native epitope, essentially as described in Example 6. The data shown in FIGS. 26-28 were generated by stimulating with analog peptide at approximately 0.3 μM. […] In some cases, the reported values are the average of two determinations.

HLA-A*0201 = HLA-A*0201 (Homo sapiens, UniProt P04439, D140Y/D185E/D98H/E176V/E277Q/G131W/G231S/I119V/I121R/I166T/I218V/L300P/L318F/N151K/N90K/P208A/P217A/Q86G/Q94H/R138H/R169H/T345S); test: iTopia affinity assay (ED50); format: binding; settings: compared with the respective native peptide
Excerpt: Avidin-coated microtiter plates containing class I monomer loaded with a so-called placeholder peptide were used to evaluate peptide binding, affinity and off-rate. The monomer-coated plates were supplied as part of the iTopia Epitope Discovery System Kit (Beckman Coulter, Inc., San Diego, Calif., USA). Assay buffers, anti-MHC-FITC mAb and beta2-microglobulin and control peptides were also supplied with the kits.
Plates were read on the fluorometer. Sigmoidal dose response curves were generated using Prism software.

[2] = molecular target: A0201 restricted MHC Class 1 molecules (Homo sapiens, UniProt P04439, D140Y/D185E/D98H/E176V/E277Q/G131W/G231S/I119V/I121R/I166T/I218V/N151K/N90K/P208A/P217A/Q86G/Q94H/R138H/R169H); test: iTopia off-rate assay (T1/2); format: binding; settings: compared with the respective native peptide
Protocol: Avidin-coated microtiter plates containing class I monomer loaded with a so-called placeholder peptide were used to evaluate peptide binding, affinity and off-rate. […] Assay buffers, anti-MHC-FITC mAb and beta2-microglobulin and control peptides were also supplied with the kits.
The plates were then incubated on the allele-specific monomer plates at 37° C. The plates were measured at multiple time points (0, 0.5, 1, 1.5, 2, 4, 6 and 8 hrs) for relative fluorescence intensity. The time required for 50% of the peptide to dissociate from the MHC monomer is defined as the T1/2 value (hrs).
The binding and offrate (T1/2) was determined for six native epitopes and their analogs which were designed to enhance the immune response.

A2-624.28 control cells = test: Ex vivo cytotoxicity against A2-negative control cells; format: in vivo; settings: same effector cells as for 624.38
Protocol: (§1) This was followed by two peptide boosts (2.5 μg) at day 28 and 31, with the analog L426Nva L433Nle.

PRAME425-433 peptide = test: IFN-gamma ELISA of splenocytes after pCTLR2 prime and peptide boost; format: in vivo, HHD transgenic mice; settings: pCTLR2 prime, 2.5 μg peptide boost; versus native peptide boost; FIG. 29
[3] = tested on: PRAME425-433-specific T cells; test: Tetramer/CD8 co-staining of PRAME425-433-specific T cells; format: in vivo, HHD transgenic mice; settings: versus boost with negative control peptide; FIG. 31
624.38 melanoma cells = test: Ex vivo cytotoxicity against PRAME+ A2+ human tumor cells; format: in vivo; settings: splenocytes restimulated ex vivo with native PRAME peptide
Protocol: as §1

[4] = tested on: native peptide loaded splenocytes; test: In vivo cytotoxicity against native PRAME peptide-loaded splenocytes (CFSE); design: species or system HHD transgenic mice; settings: pCTLR2 prime, peptide boost; FIGS. 30-31

## S{Nva}LQHLIG{Nle} (S[Nva]LQHLIG[Nle]) [Prame 425-433 (L426Nva, L433Nle)]
splenocytes
  ex vivo cytokine production (IFN-γ) by splenocytes: greater response
[1]
  IFN-γ production (cross-reactivity), in words: significant level of cross-recativity
HLA-A*0201
  binding affinity (ED50) / binding characteristics, in words: similar, somewhat improved binding characteristics
[2]
  stability of binding (half-time of dissociation), in words: Significant increase in the stability
A2-624.28 control cells
  cytotoxicity against A2-negative control cells: no significant activity
PRAME425-433 peptide
  IFN-γ production in response to PRAME425-433 peptide (ELISA): significant enhancement of IFN-γ production
[3]
  expansion of T cells specific against the native epitope (tetramer staining): significantly higher
624.38 melanoma cells
  cytotoxicity against 624.38 human tumor cells: significant cytotoxicity
[4]
  in vivo cytotoxicity against native epitope, in words: preserved induction of cytotoxicity; also recorded: capable of expanding the immunity against the native epitope
